Laboratory results from patent publication US20260000763A1, “Methods of Manufacturing Therapeutic Cells” (The Board of Trustees of the Leland Stanford Junior …, priority 2022, published 2026).

What was measured:
CD19.28 CAR T cells = CD19.28 CAR T cells expanded in inosine vs glucose media: Annexin V, CAR expression, CD4/CD8, memory phenotype (flow cytometry); format: cell-based
Description: In this example, CD19.28 CAR T cells were cultured in regular complete RPMI media until day 4, and then the cells were split between 11 mM glucose-(CTR) or 11 mM inosine-(INO) containing media (unless stated otherwise). A: Annexin 5 staining was performed at day 17 post-activation. Representative histograms of n=3 donors are shown. B: Surface CD19.28 CAR expression at day 14 post-activation. C: MFI of CAR molecules on CD19.28z CAR T cell surface at day 14 post activation. D: Ratio of CD4+vs CD8+CD19.28 CAR T cells at day 14 post-activation. E: CD19.28z CAR T cells were co-cultured with cells of the Nalm6 tumor line (1:8 E: T) for 75 hrs in an IncuCyte assay. […] Representative donor of n=3 is shown. F: Control media was replaced by INO+ media at the indicated day post activation. At day 14, cells were stimulated with Nalm6 tumor line, and IL-2 and IFNγ secretion was assessed by ELISA. […] For A and B, P values were determined by paired two-tailed t-tests. […] For F and G, P values were determined by unpaired two-tailed t-tests.
In this example, CAR T cells were cultured in control media until day 4 post activation, followed by continued expansion in regular or inosine-containing media. Phenotype of the cells was assessed by flow cytometry at day 21 post activation. A: Frequency of CD62L+ and CCR7+HA CAR+ T cells in 8 different donors. Representative histograms are shown. B: Relative frequency of central memory (CM), naïve, terminally differentiated (TEMRA) and effector memory (EM) HA CAR T cells. N=8 donors. C: Frequency of CD62L+ and CCR7+CD19.28 CAR+ T cells in 8 different donors. Representative histograms are shown. D: Relative frequency of central memory (CM), naïve, terminally differentiated (TEMRA) and effector memory (EM) CD19.28 CAR T cells. N=8 donors.
In this example, CD19.28 CAR T cells were generated using a retroviral vector and at day 4 post-activation, the cells were split between 11 mM glucose-(CTR) or 11 mM inosine-(INO) containing media (unless stated otherwise). Tested first was whether the absence of glucose in the culture media has a negative effect on the viability of CAR T cells.

[1] = tested on: Nalm6-GD2+ leukemia cells; experiment: Nalm6-GD2+ leukemia in NSG mice treated with HA CAR T cells; format: in vivo; settings: 2×10^6 HA CAR T cells IV day 3, expanded in inosine vs regular media
Description: A: NSG mice were injected IV with 1×10^6 Nalm6 leukemia cells at day 0, and then 0.2×10^6 CD19.28 CAR T cells, generated in regular or inosine-supplemented media were given IV on day 3. Tumor progression was monitored using bioluminescent imaging. Scales are normalized for all time points. Data are mean+s.e.m. of n=5 mice per group. […] B: NSG mice were injected IV with 1×10^6 Nalm6-GD2+ leukemia cells at day 0, and then 2×10^6 HA CAR T cells, generated in regular or inosine-containing media were given IV on day 3. Tumor progression was monitored using bioluminescent imaging. Scales are normalized for all time points. Data are mean+s.e.m. of n=5 mice per group. […] C: Overall survival. N=5 mice per group. Survival curves were compared using the log-rank Mantel-Cox test. D: NSG mice were injected intramuscular with 1×10^6 143b tumor cells. 4 days later the mice were injected with 1×10^7 Her2, Her2 grown in INO+ media or mock T cells IV. Tumor growth was monitored by caliper measurements. […] N=3-5 mice per group. Survival curves were compared using the log-rank Mantel-Cox test.
In this example, the in vivo anti-tumor potency of CAR T cells manufactured in the presence or absence of inosine was assessed. […] Three days post tumor injection, mice were evaluated and normalized for engraftment using bioluminescent imaging. […]

GD2.bbz-CAR T cells = GD2.bbz-CAR T cells manufactured in GMP-grade AIM 5 media with increasing inosine; format: cell-based
Description: FIG. 8B: Expansion rate of GD2.bbz-CAR T cells between day 3 and day 6 post-activation of CAR T cells grown in AIM 5 containing indicated concentration of inosine. N=4 donors from independent experiments.
FIG. 8C: Viability of GD2.bbz-CAR T cells cultured for 4 days in AIM 5 containing indicated concentration of inosine at day 6 post-activation. N=4 donors from independent experiments.
FIG. 8D: GD2.bbz-CAR T cells grown in media containing indicated inosine concentration between day 3 and day 8 post-activation and stimulated with 143b or Nalm6-GD2 tumor. IFNγ secretion after 24 hrs of co-culture was measured. Data are mean+s.d. of duplicate or triplicate wells. Representative of n=2 donors shown.
Next, to test this therapeutic window in the clinical context, GD2-CAR T cells were manufactured and determined to have anti-tumor activity in diffuse midline gliomas (DMGs) using GMP-grade AIM 5 media with increasing concentrations of INO (FIG. 8A).

HA-CAR T cells = experiment: Mass cytometry single cell metabolic regulome profiling; format: cell-based, human; settings: CyTOF, day 14
Description: INO cultured cells also expressed higher levels of enzymes associated with glutaminolysis (GLS, GPT2), and TCA activity (IDH1, IDH2, CS, SDHA), consistent with INO induced glutamine catabolismdriving TCA through anapleurosis (FIG. 11D). Proteins of complex I and complex V of the electron transport chain were also elevated, consistent with higher oxidative phosphorylation.

[2] = day 14, 11 mM inosine vs glucose

## O=c1[nH]cnc2c1ncn2[C@@H]1O[C@H](CO)[C@@H](O)[C@H]1O [inosine, Inosine]
CD19.28 CAR T cells; CD19.28 CAR T cells, 11 mM inosine vs 11 mM glucose, day 17
  percentage of live cells: increase
CD19.28 CAR T cells; CD19.28 CAR T cells, 11 mM inosine without glucose from day 4, vs 11 mM glucose, day 17 post-activation
  frequency of Annexin V+ apoptotic cells: significantly lower frequency
CD19.28 CAR T cells; CD19.28z CAR T cell surface, day 14, 11 mM inosine vs glucose
  CAR MFI: increased
CD19.28 CAR T cells; [2]
  CD4/CD8 ratio: neither percentage of CAR+ T cells nor CD4/CD8 ratio was affected
  percentage of CAR+ T cells: neither percentage of CAR+ T cells nor CD4/CD8 ratio was affected
[1]
  survival: improved
  tumor control: improved
GD2.bbz-CAR T cells; AIM 5 with increasing INO, day 3 to day 6
  cell proliferation: significantly decreased cell proliferation
GD2.bbz-CAR T cells; AIM 5 with increasing INO, day 6
  CAR T cell viability: no significant changes
GD2.bbz-CAR T cells; challenged with 143b (low GD2) or Nalm6-GD2 (high GD2), 24 hrs
  secretion of IFNγ: increase in secretion of IFNγ
HA-CAR T cells
  enzymes associated with glutaminolysis (GLS, GPT2) and TCA activity (IDH1, IDH2, CS, SDHA): higher levels
  expression of CAT2: increased
  proteins of complex I and complex V of the electron transport chain: elevated
